Test results as given in US8304238B2, “Cell culture medium and immobilized preparation of cell adhesion protein or peptide” (Nat'l Institute for Environmental Studies, priority 2003, dated 2012).
Where no end group is shown, it is not given here.

Experiments:
Type in all cases: cell-based
[1] = test system: alveolar type II epithelial cells (T2 cells); assay: Adhesion of T2 cells to immobilized cell adhesion peptide substrates and inhibition by the same free peptide; details: for Inhibition degree of cell adhesion, Free peptide: T2 cells on immobilized peptide, same free peptide coexistent at 0.25 mg/ml; for Competitive inhibition of cell adhesion by the same free cell adhesion peptide: immobilized by MMAC or MAST, free peptide 0.25 mg/ml
Description: All treatments are assumed to be aseptic treatments. First, in the case of cell adhesion proteins, 10 μg/ml of a hydrophobic binding-adsorptive polymer, such as MMAC and MAST, and in the case of peptides, 50 μg/ml of MMAC and MAST is dissolved in ethanol, the solution is filtered and poured by 50 μl each into a 96-well with no surface treatment for cell culture, leave it stand still for a while, and then MMAC etc., are removed and air-drying is conducted. Next, 10-20 μg/ml of cell adhesion protein or 0.25 mg/ml of peptide is dissolved in 0.1 M triethanolamine buffer, a solution of pH 8.8, and the mixture was poured by 50 μl each into a 96-well previously coated with MMAC etc. The solution is reacted overnight while humidifying in an incubator heated at 37° C. After the reaction finishes, the reaction liquid is absorbed, the remaining reaction solution is rinsed out with the medium, and the immobilized preparation of cell adhesion proteins or peptides is prepared. The preparation, as described in the following Examples, can be used for cell cultures as cell adhesion protein or peptide substrates.
T2 cells suspended in the serum-free DMEM medium at the concentration of 6×10^4 cells/100 μl were seeded in the well prepared according to the manner in Example 6, wherein cell adhesion peptides were immobilized, and cultured in a CO2 incubator at 37° C. for 24 hours. Then, in accordance with the manner in Example 7, the cells were fixed with methanol, stained, and the absorbance was measured. Just before seeding the cells, the free peptides, the same kind as the cell adhesion peptides used for immobilization, were also added to the cell suspension, and the absorbance was measured after the culture in the same manner as described above. As to the case wherein FN was applied as a standard material, the measurement was conducted as well.
FIGS. 4 and 5 show the results obtained with the use of wells prepared by using laminin α-chain G-peptides and FIB-1 peptide as cell adhesion peptides, and as a hydrophobic binding-adsorptive polymer, MMAC was used in FIG. 4, and MAST was used in FIG. 5.

[2] = test system: alveolar type II epithelial cells (T2 cells); assay: Inhibition of T2 cell adhesion to immobilized cell adhesion peptide substrates by heparin treatment; details: 24-hour culture; for Inhibition of cell adhesion to immobilized peptide by heparin treatment: 100 μg/ml heparin 2 hours
Description: 100 μg/ml of heparin solution was poured into a well prepared according to the method in Example 6, wherein the cell adhesion peptides were immobilized, and the incubation was conducted for 2 hours. The heparin solution was removed after heparin bound to the immobilized cell adhesion peptides, and T2 cell suspension was seeded on the well.
It is theoretically shown that after the cell adhesion peptides first bind to heparin and are covered with heparin, the cell adhesion receptors having heparin-like sugar chain (heparan sulfate) present on the cell surface, in other words, syndecan, a protein that belongs to heparan sulfate proteoglycan, cannot bind to the cell adhesion peptides by using the sugar chain part of the heparan sulfate, thereby the cell adhesion is inhibited.

[3] = test system: alveolar type II epithelial cells (T2 cells); assay: Binding strength (affinity) of immobilized LN peptides to T2 cells relative to immobilized FIB-1 (mixed immobilization, free FIB-1 competition); parameters: key to Binding strength to T2 cells, Comprehensive evaluation: AA: extremely strongly binding/adhering; A: strongly binding/adhering; B: intermediately binding/adhering (as the same degree as FIB-1 peptide); C: more weakly binding/adhering than FIB-1 peptide; details: for Binding strength to T2 cells, Comprehensive evaluation: classification relative to FIB-1 peptide; for Binding strength to T2 cells, Ratio to FIB-1: inverse of mixing ratio at transitional midpoint, MMAC-coated well
Description: Therefore, the amount of FIB-1 peptide was set at 0.25 mg/ml, and AG73 peptide was mixed therewith, while changing its concentration ratio, from 1/1.250 of FIB-1 in an amount which is 0.20 μg/ml, to ½ of FIB-1 in an amount which is 0.125 mg/ml, and the mixture was immobilized on a well wherein a hydrophobic binding-adsorptive polymer MMAC was coated. The amount of cell adhesion in the case where T2 cells were cultured under a serum-free condition for 1 day on the immobilized peptides is shown in FIG. 9, in comparison with the case where the culture was conducted on the immobilized FIB-1, which was set at 100%.
However, in a case that the ratio of FIB-1:AG73 increased to 1:0.02, because T2 cells already transited to be adherent through the immobilized AG73 peptide, free FIB-1 peptide could no longer inhibit the cell adhesion. […] Likewise, with regard to A3G72 and A4G82 peptides, because the mixing ratio at the transitional midpoint=0.1, their binding strength to T2 cells is 10 times as much as that of FIB-1.
The method used in FIGS. 8 and 9 is extremely effective as a convenient method by which a relative order can be measured concerning to the binding strength (affinity) of cell adhesion peptides and the strength of cell adhesion can be considered quantitatively.
In Table 1, the classification is shown based on the results of the affinity (bonding/adhesion strength) between FIB-1 peptide containing RGD amino acid sequence of FN molecule, a binding site to integrin, and T2 cells: laminin α-chain G-domain peptides are classified into class AA, extremely strong binding/adhesion; class A, strong adhesion; class B, adhesion as the same degree as FIB-1; and class C, binding weaker than the described above.

[4] = test system: alveolar type II epithelial cells (T2 cells); assay: Inhibition by free cell adhesion peptides of T2 cell adhesion to coated cell adhesion proteins FN, Col I, LN, VN; details: free peptide 0.25 mg/ml; serum-free, 1 day
Description: Commercially available FN, LN and VN, usually used as cell adhesion proteins at cell culture, were coated to wells at the concentrations of 5 μg/ml, 10 μg/ml and 10 μg/ml, respectively. In case of Col I (collagen type I), Col I at the concentration of 100 μg/ml, dissolved in 1 mM HCl, was poured into a well, left stand still for a while, and then the solution was removed and air-drying was conducted, and rinsed with the medium, before use. Next, 6×10^5 cells/ml of alveolar type II epithelial cells (T2 cells) suspended in the serum-free DMEM medium was seeded by 100 μl each on a 96-well to which the extracellular matrix was coated, and cultured in a CO2 incubator at 37° C. for 1 day. After the culture was finished, the cells were fixed with 100 μl of methanol for 5 minutes, and stained for 30 minutes with 50 μl of 0.4% crystal violet. Excessive staining was washed with water, then the number of cells adhered to FN, Col I, LN and VN, which had been coated to the wells, was counted based on the absorbance of cytoplasm (A595).
On the other hand, among amino acid sequences of various LN molecules, the sequences that induce cell adhesion are known to be present. […] Then, the number of cells was counted in accordance with the method described above.

[5] = test system: alveolar type II epithelial cells (T2 cells); assay: Inhibition of T2 cell adhesion by free peptide different from the immobilized peptide substrate; details: for Inhibition by free peptide of T2 cell adhesion to immobilized AG73: AG73 (etc.) immobilized; for Inhibition by free peptide of T2 cell adhesion to immobilized FIB-1: FIB-1 immobilized; for Inhibition by free peptide of T2 cell adhesion to immobilized AG81.2 and AG73T: AG81.2 and AG73T immobilized
Description: Results obtained by adding the free peptides different from the immobilized peptides when T2 cells were cultured on the immobilized peptide prepared according to the method in Example 7, were shown in FIG. 8.
When adding the free peptides that were the same as the immobilized peptides in the culture medium, the both (free and immobilized) peptides compete for syndecan of T2 cells and as a result, the cell adhesion is inhibited (see Example 7). So far, four types of syndecans are genetically known. Whether these syndecans are commonly owned or accommodated by each peptide, overlapping only by some degrees, otherwise mutually exclusive, was examined herein.

[6] = test system: alveolar type II epithelial cells (T2 cells); assay: Inhibition of T2 cell adhesion to immobilized pseudomatrix by treatment with polyclonal antibodies for the peptides
Description: Each pseudomatrix prepared in Example 13 to which cell adhesion peptide was bound (MBAC-peptide) was diluted in DMEM medium to the concentration of 1-10 μg/ml, poured into a 96-well by 100 μl each, and left still overnight in a CO2 incubator to be adsorbed and immobilized on the wells. Non-adsorbed MBAC-peptides were removed by rinsing well with DMEM medium. Next, 100 μl of antibodies diluted with serum-free DMEM to the concentration of 4-10 μg/ml was poured into a well, incubated for 2-4 hours to let the antibodies bind to the peptides. Normal IgG was used for control groups. Antibodies were removed after the treatment, T2 cells suspended at the concentration of 6×10^5 cells/ml were seeded by 100 μl each. After 1-day serum-free culture, T2 cells were fixed with 100 μl of methanol for 5 minutes, and stained with 50 μl of 0.4% crystal violet for 30 minutes. Excessive staining was washed with water, and the number of adhering cells was counted based on the absorbance of cytoplasm (A595).

| Substance | Inhibition degree of cell adhesion, Free peptide [1] | Competitive inhibition of cell adhesion by the same free cell adhesion peptide [1] | Inhibition of cell adhesion to immobilized peptide by heparin treatment [2] | Binding strength to T2 cells, Comprehensive evaluation [3] | Inhibition of adhesion of T2 cells to FN, Col I, LN and VN by free peptide [4] | Inhibition degree of cell adhesion, Heparin ([2]; immobilized peptide treated with 100 μg/ml heparin 2 hours) | Inhibition by free peptide of T2 cell adhesion to immobilized AG73 [5] | Inhibition by free peptide of T2 cell adhesion to immobilized FIB-1 [5] | Binding strength to T2 cells, Ratio to FIB-1 ([3]; FIB-1 0.25 mg/ml) | Mixing ratio at the transitional midpoint ([3]; peptide:FIB-1 co-immobilized, FIB-1 0.25 mg/ml, loss of inhibition by free FIB-1) | Inhibition by free peptide of T2 cell adhesion to immobilized AG81.2 and AG73T [5] | Cell adhesion ability of immobilized pseudomatrix compared with coated FN ([6]; MBAC-peptide 1-10 μg/ml in DMEM) | Inhibition of cell adhesion by treatment with antibodies for the peptides ([6]; antibodies 4-10 μg/ml, 2-4 hours) |
| --- | --- | --- | --- | --- | --- | --- | --- | --- | --- | --- | --- | --- | --- |
| GEKSQFSIRLKT | No | without competitive inhibition | inhibition of adhesion | C |  |  |  |  |  |  |  |  |  |
| GPLPSYLQFVGI |  |  |  | B | inhibited adhesion of T2 cells | No | inhibited the cell adhesion | could inhibit | <1 | about 1 |  |  |  |
| KNRLTIELEVRT | No | without competitive inhibition | inhibition of adhesion | C |  |  |  |  |  |  |  |  |  |
| LQQRRSVLRTKI | No | without competitive inhibition | inhibition of adhesion | C |  |  | cannot inhibit it | could not inhibit |  |  | could not competitively inhibit their immobilized peptide, or even if they can, only slightly |  |  |
| MBAC-AG73T: pseudomatrix: MBAC polymer reacted with AG73T peptide (LQQRRSVLRTKI) |  |  |  |  |  |  |  |  |  |  |  | the same level of cell adhesion ability as in the case where FN was coated | specifically inhibited |
| RNRLHLSMLVRP |  | without competitive inhibition | inhibition of adhesion | C |  |  |  |  |  |  |  |  |  |
| TLQLQEGRLHFM | No | without competitive inhibition | inhibition of adhesion | C |  |  |  |  |  |  |  |  |  |
| VKTEYIKRKAFM | No | without competitive inhibition | inhibition of adhesion | C |  |  | cannot inhibit it | could not inhibit | <1 |  | could not competitively inhibit their immobilized peptide, or even if they can, only slightly |  |  |
